We go through 17 molecules from patent US20260078130A1, “NAMPT MODULATORS, PREPARATIONS, AND USES THEREOF” (SIRONAX LTD., priority 2022, published 2026).

Assay [1] relates to endogenous NAMPT in U2OS cells. The experiment in a line: Cellular NAD+ modulation assay (NAD/NADH-Glo, U2OS cells). Conditions: Homo sapiens; for maximal fold induction: read-out: Cellular Emax. Format: cell-based. The method in brief: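 Endogenous NAMPT stimulation in U2OS cells treated with compound dilution series for 24 h at 37 °C. Cells lysed with DTAB base, acid-treated 15 min at 60 °C, neutralized, NAD+ read by NAD/NADH-Glo luminescence after 40 min at room temperature. EC50 and Emax (fold over DMSO) derived.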

Assay [2] deals with T1, human enzyme NAMPT (full length) (Homo sapiens, UniProt P43490).
T1 construct: human enzyme NAMPT (full length)
T1 sequence (P43490 whole entry): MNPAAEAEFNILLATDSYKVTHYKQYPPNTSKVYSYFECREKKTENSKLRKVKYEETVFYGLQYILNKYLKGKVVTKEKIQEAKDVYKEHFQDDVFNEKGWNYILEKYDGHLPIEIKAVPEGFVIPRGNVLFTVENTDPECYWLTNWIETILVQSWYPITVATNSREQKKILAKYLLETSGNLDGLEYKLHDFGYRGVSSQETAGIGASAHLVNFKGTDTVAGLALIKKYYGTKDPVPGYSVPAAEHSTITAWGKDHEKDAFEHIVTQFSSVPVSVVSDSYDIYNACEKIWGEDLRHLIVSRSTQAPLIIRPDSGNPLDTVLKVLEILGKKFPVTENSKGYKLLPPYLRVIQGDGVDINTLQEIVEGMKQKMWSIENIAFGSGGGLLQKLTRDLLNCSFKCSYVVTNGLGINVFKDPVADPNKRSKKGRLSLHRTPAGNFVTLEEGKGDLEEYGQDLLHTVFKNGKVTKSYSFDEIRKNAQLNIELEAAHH
Put plainly: NMN fluorescence biochemical assay (stimulation of NMN synthesis by NAMPT). Conditions: for EC50: concentration giving half-maximal activation, read-out: Enzymatic EC50; for Enzymatic Emax: fold change of maximal activation compared to DMSO. An outline of the steps:
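Full-length human NAMPT (100 nM) was preincubated 15 min at 37 °C with compound in 50 mM Tris-HCl pH 7.5, 10 mM MgCl2, 2 mM DTT, then reacted 1 h at 37 °C with 50 μM NAM, 100 μM PRPP, 4 mM ATP (stated solution concentrations). NMN was derivatised with acetophenone/KOH then formic acid and read at Ex/Em 382/445 nm; EC50 and Emax (fold over DMSO) reported.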

[3] abbreviates: 24 hours incubation with compound.
The mark [4] stands for this setting: NMN synthesis by purified human NAMPT (100 nM).
Setting [5] is: 24 hours incubation, cellular NAD+.
The mark [6] stands for this setting: NMN fluorescence assay, purified human NAMPT 100 nM.

Where two headings read alike, the source gives them in different places.

One may read the EC50 as the concentration that produces a half-maximal response. Regarding `O=C1NCC2(CC(CN3C(=O)c4ccccc4C3Cc3ncccc3Br)C2)O1` (centres unmarked) [Compound 270, 2-((1-((3-bromopyridin-2-yl)methyl)-3-oxoisoindolin-2-yl)methyl)-5-oxa-7-azaspiro[3.4]octan-6-one], in assay [1] (setting [3]), the EC50 is less than 500 nM and the maximal fold induction fell in the range of 1.2 to 1.5. Also, in assay [2] (setting [4]), the EC50 was less than 500 nM. Moreover, the “Enzymatic Emax” value in assay [2] was “A (A>3)”.
`O=C1c2ccccc2C(Cc2nc(Br)sc2Cl)N1Cc1ccc2[nH]nnc2c1` (centres unmarked) [Compound 448, 2-((1H-benzo[d][1,2,3]triazol-5-yl)methyl)-3-((2-bromo-5-chlorothiazol-4-yl)methyl)isoindolin-1-one]: in assay [1] (setting [5]), the EC50 was 500 to 5000 nM and the maximal fold induction is greater than 1.5. In assay [2] (setting [6]), the EC50 was less than 500 nM. The “Enzymatic Emax” value in assay [2] is “A (A>3)”.
The corresponding values for `Cn1ncc(Cl)c1CC1c2cc(Br)ccc2C(=O)N1CC1CC2(CNC(=O)O2)C1` (centres unmarked) [Compound 450, 2-((5-bromo-3-((4-chloro-1-methyl-1H-pyrazol-5-yl)methyl)-1-oxoisoindolin-2-yl)methyl)-5-oxa-7-azaspiro[3.4]octan-6-one] are less than 500 nM, greater than 1.5, 500 to 5000 nM and “A (A>3)”.
On to `N#Cc1ccncc1CC1c2ccccc2C(=O)N1Cc1ccc2[nH]c(=O)oc2c1` (centres unmarked) [Compound 203, 3-((3-oxo-2-((2-oxo-2,3-dihydrobenzo[d]oxazol-6-yl)methyl)isoindolin-1-yl)methyl) isonicotinonitrile], for which, in assay [1] (setting [3]), the EC50 was less than 500 nM and the maximal fold induction was greater than 1.5. For the same molecule, the EC50 in assay [2] (setting [4]) was 500 to 5000 nM. Also, in assay [2], the “Enzymatic Emax” value is recorded as “A (A>3)”.
For `O=C1CCc2ccccc2N1Cc1ccc(O)cc1` [Compound 3, 1-(4-hydroxybenzyl)-3,4-dihydroquinolin-2(1H)-one], in assay [1] (setting [3]), the EC50 is 5000 to 50000 nM and the maximal fold induction was 1.2 to 1.5. Moreover, the EC50 in assay [2] (setting [4]) was no less than 5000 nM. In assay [2], the “Enzymatic Emax” value is reported as “B (3≥B>2)”.
For `CC1c2cc(F)ccc2C(=O)N1Cc1ccc2[nH]c(=O)oc2c1` (centres unmarked) [Compound 275, 6-((5-fluoro-3-methyl-1-oxoisoindolin-2-yl)methyl)benzo[d]oxazol-2(3H)-one] the same measures were 500 to 5000 nM, greater than 1.5, no less than 5000 nM and “B (3≥B>2)”.
Turning to `O=C1c2ccccc2C(Cc2ncco2)N1Cc1ccc2[nH]c(=O)oc2c1` (centres unmarked) [Compound 150, 6-((1-(oxazol-2-ylmethyl)-3-oxoisoindolin-2-yl)methyl)benzo[d]oxazol-2(3H)-one], in assay [1] (setting [3]), the half-maximal effective concentration (EC50) was 5000 to 50000 nM and the maximal fold induction is greater than 1.5. Moreover, the concentration giving a half-maximal response (EC50) in assay [2] (setting [4]) was no less than 5000 nM. Further, the “Enzymatic Emax” value in assay [2] is recorded as “A (A>3)”.
In the case of `O=C1NCC2(CC(CN3C(=O)c4ccccc4C3Cc3nnsc3Cl)C2)O1` (centres unmarked) [Compound 538, 2-((1-((5-chloro-1,2,3-thiadiazol-4-yl)methyl)-3-oxoisoindolin-2-yl)methyl)-5-oxa-7-azaspiro[3.4]octan-6-one], the EC50 in assay [1] (setting [5]) was 500 to 5000 nM; in assay [2] (setting [6]), no less than 5000 nM. Further, in assay [1] (setting [5]), the maximal fold induction was greater than 1.5. Moreover, the “Enzymatic Emax” value in assay [2] is given as “C (2≥C)”.
The corresponding values for `Cc1nn(C)c(CC2c3ccccc3C(=O)N2CC2CC3(CNC(=O)O3)C2)c1Cl` (centres unmarked) [Compound 527, 2-((1-((4-chloro-1,3-dimethyl-1H-pyrazol-5-yl)methyl)-3-oxoisoindolin-2-yl)methyl)-5-oxa-7-azaspiro[3.4]octan-6-one] are less than 500 nM, less than 500 nM, greater than 1.5 and “B (3≥B>2)”.
Take `N#Cc1cccc(CC2c3ccccc3C(=O)N2Cc2ccc3[nH]c(=O)oc3c2)c1` (centres unmarked) [Compound 131, 3-((3-oxo-2-((2-oxo-2,3-dihydrobenzo[d]oxazol-6-yl)methyl)isoindolin-1-yl)methyl) benzonitrile]: in assay [1] (setting [3]), the EC50 was in the range of 500 to 5000 nM and the maximal fold induction is greater than 1.5. In assay [2] (setting [4]), the EC50 fell in the range of 500 to 5000 nM. In addition, in assay [2], the “Enzymatic Emax” value is given as “A (A>3)”.
Consider `Cc1ncnc(C#N)c1CC1c2ccccc2C(=O)N1Cc1ccc2[nH]nnc2c1` (centres unmarked) [Compound 384, 5-((2-((1H-benzo[d][1,2,3]triazol-5-yl)methyl)-3-oxoisoindolin-1-yl)methyl)-6-methylpyrimidine-4-carbonitrile], for which, in assay [1] (setting [5]), the EC50 was less than 500 nM and the maximal fold induction was greater than 1.5. Further, the EC50 in assay [2] (setting [6]) was less than 500 nM. Besides, the “Enzymatic Emax” value in assay [2] is “B (3≥B>2)”.
In the case of `O=C1c2ccccc2C(Cc2cccnc2)N1Cc1ccc2[nH]c(=O)oc2c1` (centres unmarked) [Compound 137, 6-((1-oxo-3-(pyridin-3-ylmethyl)isoindolin-2-yl)methyl)benzo[d]oxazol-2(3H)-one], in assay [1] (setting [3]), the EC50 is less than 500 nM and the maximal fold induction was greater than 1.5. Also, in assay [2] (setting [4]), the EC50 fell in the range of 500 to 5000 nM. Besides, in assay [2], the “Enzymatic Emax” value is on record as “B (3≥B>2)”.
With `Cn1ncc(Cl)c1CC1c2cc(N3CCOCC3)ccc2C(=O)N1CC1CC2(CNC(=O)O2)C1` (centres unmarked) [Compound 463, 2-((3-((4-chloro-1-methyl-1H-pyrazol-5-yl)methyl)-5-morpholino-1-oxoisoindolin-2-yl)methyl)-5-oxa-7-azaspiro[3.4]octan-6-one], the EC50 in assay [1] (setting [5]) is less than 500 nM; in assay [2] (setting [6]), 500 to 5000 nM. Moreover, in assay [1] (setting [5]), the maximal fold induction is greater than 1.5. The “Enzymatic Emax” value in assay [2] is “B (3≥B>2)”.
With `Cn1ncc(Cl)c1CC1c2cc(OC(F)F)ccc2C(=O)N1CC1CC2(CNC(=O)O2)C1` (centres unmarked) [Compound 541, 2-((3-((4-chloro-1-methyl-1H-pyrazol-5-yl)methyl)-5-(difluoromethoxy)-1-oxoisoindolin-2-yl)methyl)-5-oxa-7-azaspiro[3.4]octan-6-one], in assay [1] (setting [5]), the EC50 was less than 500 nM and the maximal fold induction was greater than 1.5. For the same molecule, the EC50 in assay [2] (setting [6]) lay within 500 to 5000 nM. The “Enzymatic Emax” value in assay [2] was “B (3≥B>2)”.
Turning to `COc1ccc(CN2C(=O)c3ccccc3C2Cc2c(Cl)cnn2C)nc1F` (centres unmarked) [Compound 543, 3-((4-chloro-1-methyl-1H-pyrazol-5-yl)methyl)-2-((6-fluoro-5-methoxypyridin-2-yl)methyl)isoindolin-1-one], in assay [1] (setting [5]), the EC50 lay in the range of 500 to 5000 nM and the maximal fold induction is greater than 1.5. For the same molecule, the EC50 in assay [2] (setting [6]) was 500 to 5000 nM. Also, the “Enzymatic Emax” value in assay [2] is listed as “B (3≥B>2)”.
On to `Cc1ccc(CC2c3ccccc3C(=O)N2Cc2ccc3[nH]c(=O)oc3c2)nc1` (centres unmarked) [Compound 161, 6-((1-((5-methylpyridin-2-yl)methyl)-3-oxoisoindolin-2-yl)methyl)benzo[d]oxazol-2(3H)-one], for which the EC50 in assay [1] (setting [3]) and in assay [2] (setting [4]) was 500 to 5000 nM each time. The maximal fold induction in assay [1] (setting [3]) is greater than 1.5. Also, the “Enzymatic Emax” value in assay [2] was “A (A>3)”.
Take `CN1CC(c2nn(C)c(CC3c4ccccc4C(=O)N3CC3CC4(CNC(=O)O4)C3)c2Cl)C1` (centres unmarked) [Compound 509, 2-((1-((4-chloro-1-methyl-3-(1-methylazetidin-3-yl)-1H-pyrazol-5-yl)methyl)-3-oxoisoindolin-2-yl)methyl)-5-oxa-7-azaspiro[3.4]octan-6-one]: in assay [1] (setting [5]), the EC50 lay in the range of 500 to 5000 nM and the maximal fold induction is greater than 1.5. Further, the EC50 in assay [2] (setting [6]) is less than 500 nM. For the same molecule, the “Enzymatic Emax” value in assay [2] is “A (A>3)”.
